This note sets out measurements from article PMC12102759 (Protein Science : A Publication of the Protein Society, 2025).

Where two headings read alike, the source gives them in different places.

This test concerns PABPC1 PABC. It counts as binding, human. The conditions noted are these: DMS-BM library, bait PABPC1 PABC, row aa = residue at this position.
Setting [1] is: prey ATXN2, peptide KSTLNPNAKEFNPRSF, N = wild type.
The mark [2] stands for this setting: prey ATXN2, peptide TLNPNAKEFNPRSFSQ, P = wild type.
Where [3] appears, read: prey ATXN2, peptide TLNPNAKEFNPRSFSQ, K = wild type.
Where [4] appears, read: prey ATXN2, peptide TLNPNAKEFNPRSFSQ, S = wild type.
[5] abbreviates: prey ATXN2, peptide KSTLNPNAKEFNPRSF, K = wild type.
Where [6] appears, read: prey ATXN2, peptide TLNPNAKEFNPRSFSQ, L = wild type.
[7] abbreviates: prey ATXN2, peptide KSTLNPNAKEFNPRSF, T = wild type.
Setting [8] is: prey ATXN2, TLNPNAKEFNPRSF(averaged) over the two overlapping peptides, N = wild type.
[9] abbreviates: prey ATXN2, peptide KSTLNPNAKEFNPRSF, E = wild type.
The mark [10] stands for this setting: prey ATXN2, TLNPNAKEFNPRSF(averaged) over the two overlapping peptides, P = wild type.
Setting [11] is: prey ATXN2, peptide TLNPNAKEFNPRSFSQ, R = wild type.
Setting [12] is: prey ATXN2, TLNPNAKEFNPRSF(averaged) over the two overlapping peptides, R = wild type.
Where [13] appears, read: prey ATXN2, peptide TLNPNAKEFNPRSFSQ, A = wild type.
The mark [14] stands for this setting: prey ATXN2, peptide TLNPNAKEFNPRSFSQ, E = wild type.
[15] abbreviates: prey ATXN2, peptide TLNPNAKEFNPRSFSQ, F = wild type.
Where [16] appears, read: prey ATXN2, peptide TLNPNAKEFNPRSFSQ, N = wild type.
Where [17] appears, read: prey ATXN2, peptide KSTLNPNAKEFNPRSF, F = wild type.
Where [18] appears, read: prey ATXN2, peptide KSTLNPNAKEFNPRSF, L = wild type.

“KSTLNPNAKEFNPRSF N12F (KSTLNPNAKEFFPRSF)”: the “DMS-derived PSSM value, position N12” value under setting [1] is recorded as 0.05323. TLNPNAKEFNPRSFSQ P4A (TLNANAKEFNPRSFSQ): the “DMS-derived PSSM value, position P4” value under setting [2] was 0.02051. As for TLNPNAKEFNPRSFSQ K7R (TLNPNAREFNPRSFSQ), the “DMS-derived PSSM value, position K7” value under setting [3] is recorded as 0.00234.

With “TLNPNAKEFNPRSFSQ S15W (TLNPNAKEFNPRSFWQ)”, the “DMS-derived PSSM value, position S15” value under setting [4] was 0.05986.

Turning to KSTLNPNAKEFNPRSF K9A (KSTLNPNAAEFNPRSF), under setting [5], the “DMS-derived PSSM value, position K9” value is reported as 0.002649.

As for TLNPNAKEFNPRSFSQ L2E (TENPNAKEFNPRSFSQ), the “DMS-derived PSSM value, position L2” value under setting [6] is given as 0.08907. In the case of KSTLNPNAKEFNPRSF T3S (KSSLNPNAKEFNPRSF), the “DMS-derived PSSM value, position T3” value under setting [7] came to 0. As for “TLNPNAKEFNPRSF(averaged) N5V (TLNPVAKEFNPRSF)”, the “DMS-derived PSSM value (averaged), position N5” value under setting [8] came out at 0.05544. For the substance “TLNPNAKEFNPRSF(averaged) K7Q (TLNPNAQEFNPRSF)”, where the note is “prey ATXN2, TLNPNAKEFNPRSF(averaged) over the two overlapping peptides, K = wild type”, the “DMS-derived PSSM value (averaged), position K7” value came to 0.01764. Take “KSTLNPNAKEFNPRSF P13S (KSTLNPNAKEFNSRSF)”: the “DMS-derived PSSM value, position P13” value (prey ATXN2, peptide KSTLNPNAKEFNPRSF, P = wild type) was 0.02375. On to “KSTLNPNAKEFNPRSF E10M (KSTLNPNAKMFNPRSF)”, for which, under setting [9], the “DMS-derived PSSM value, position E10” value was determined as 0.002857. In the case of “TLNPNAKEFNPRSFSQ S15I (TLNPNAKEFNPRSFIQ)”, under setting [4], the “DMS-derived PSSM value, position S15” value amounted to 0.0111. On to “TLNPNAKEFNPRSF(averaged) P4N (TLNNNAKEFNPRSF)”, for which, under setting [10], the “DMS-derived PSSM value (averaged), position P4” value was found to be 0.0005247. On to “TLNPNAKEFNPRSFSQ R12W (TLNPNAKEFNPWSFSQ)”, for which the “DMS-derived PSSM value, position R12” value under setting [11] was 0.01782. As for “TLNPNAKEFNPRSF(averaged) L2F (TFNPNAKEFNPRSF)”, under “prey ATXN2, TLNPNAKEFNPRSF(averaged) over the two overlapping peptides, L = wild type”, the “DMS-derived PSSM value (averaged), position L2” value is 0.05162. Turning to “TLNPNAKEFNPRSF(averaged) R12H (TLNPNAKEFNPHSF)”, the “DMS-derived PSSM value (averaged), position R12” value under setting [12] was determined as 0.1075. In the case of TLNPNAKEFNPRSFSQ, the “DMS-derived PSSM value, position A6” value under setting [13] is 0.3958. Moreover, the “DMS-derived PSSM value, position E8” value under setting [14] came out at 0.1068. Under setting [15], the “DMS-derived PSSM value, position F9” value worked out at 0.2105 and the “DMS-derived PSSM value, position F14” value is reported as 0.06109. For the same substance, the “DMS-derived PSSM value, position K7” value under setting [3] was 0.0126. The “DMS-derived PSSM value, position L2” value under setting [6] came to 0.3849. Under setting [16], the “DMS-derived PSSM value, position N3” value is 0.2805; the “DMS-derived PSSM value, position N5” value is listed as 0.009358; the “DMS-derived PSSM value, position N10” value came out at 0.0868. For the same substance, under setting [2], the “DMS-derived PSSM value, position P4” value came out at 0.1257 and the “DMS-derived PSSM value, position P11” value was determined as 0.07425. In addition, the “DMS-derived PSSM value, position R12” value under setting [11] is recorded as 0.03868. For the same substance, under setting [4], the “DMS-derived PSSM value, position S13” value is recorded as 0.06246 and the “DMS-derived PSSM value, position S15” value came out at 0.03177. The “DMS-derived PSSM value, position T1” value (prey ATXN2, peptide TLNPNAKEFNPRSFSQ, T = wild type) came to 0.03795.

Consider “TLNPNAKEFNPRSFSQ S13F (TLNPNAKEFNPRFFSQ)”, for which, under setting [4], the “DMS-derived PSSM value, position S13” value turned out to be 0.004247.

“TLNPNAKEFNPRSFSQ S15K (TLNPNAKEFNPRSFKQ)”: the “DMS-derived PSSM value, position S15” value under setting [4] came to 0.007327. For the substance KSTLNPNAKEFNPRSF N5W (KSTLWPNAKEFNPRSF), under setting [1], the “DMS-derived PSSM value, position N5” value is listed as 0.

Take TLNPNAKEFNPRSFSQ E8Y (TLNPNAKYFNPRSFSQ): the “DMS-derived PSSM value, position E8” value under setting [14] stood at 0.04993. With “KSTLNPNAKEFNPRSF E10L (KSTLNPNAKLFNPRSF)”, the “DMS-derived PSSM value, position E10” value under setting [9] is listed as 0.

Take “KSTLNPNAKEFNPRSF F11A (KSTLNPNAKEANPRSF)”: the “DMS-derived PSSM value, position F11” value under setting [17] came out at 0. Turning to “TLNPNAKEFNPRSFSQ S13N (TLNPNAKEFNPRNFSQ)”, the “DMS-derived PSSM value, position S13” value under setting [4] turned out to be 0.07115. Turning to TLNPNAKEFNPRSFSQ K7P (TLNPNAPEFNPRSFSQ), the “DMS-derived PSSM value, position K7” value under setting [3] turned out to be 0.006619. Take TLNPNAKEFNPRSFSQ F9L (TLNPNAKELNPRSFSQ): the “DMS-derived PSSM value, position F9” value under setting [15] turned out to be 0. With “KSTLNPNAKEFNPRSF E10W (KSTLNPNAKWFNPRSF)”, the “DMS-derived PSSM value, position E10” value under setting [9] is listed as 0. On to “TLNPNAKEFNPRSF(averaged) N3S (TLSPNAKEFNPRSF)”, for which the “DMS-derived PSSM value (averaged), position N3” value under setting [8] was 0.2635. In the case of “TLNPNAKEFNPRSF(averaged) P4Y (TLNYNAKEFNPRSF)”, under setting [10], the “DMS-derived PSSM value (averaged), position P4” value is listed as 0. “TLNPNAKEFNPRSF(averaged) P11W (TLNPNAKEFNWRSF)”: under setting [10], the “DMS-derived PSSM value (averaged), position P11” value is given as 0.01933. As for KSTLNPNAKEFNPRSF L4R (KSTRNPNAKEFNPRSF), the “DMS-derived PSSM value, position L4” value under setting [18] turned out to be 0.

On to KSTLNPNAKEFNPRSF K9P (KSTLNPNAPEFNPRSF), for which the “DMS-derived PSSM value, position K9” value under setting [5] is 0.004179. Consider “TLNPNAKEFNPRSF(averaged) R12L (TLNPNAKEFNPLSF)”, for which the “DMS-derived PSSM value (averaged), position R12” value under setting [12] came out at 0.02116. With KSTLNPNAKEFNPRSF T3D (KSDLNPNAKEFNPRSF), the “DMS-derived PSSM value, position T3” value under setting [7] is listed as 0.0007076. Consider “TLNPNAKEFNPRSF(averaged) P4A (TLNANAKEFNPRSF)”, for which the “DMS-derived PSSM value (averaged), position P4” value under setting [10] was 0.01026. As to KSTLNPNAKEFNPRSF A8K (KSTLNPNKKEFNPRSF), the “DMS-derived PSSM value, position A8” value (prey ATXN2, peptide KSTLNPNAKEFNPRSF, A = wild type) worked out at 0. In the case of “TLNPNAKEFNPRSF(averaged) S13W (TLNPNAKEFNPRWF)”, the “DMS-derived PSSM value (averaged), position S13” value (prey ATXN2, TLNPNAKEFNPRSF(averaged) over the two overlapping peptides, S = wild type) is 0.01751.

On to “TLNPNAKEFNPRSF(averaged) F9E (TLNPNAKEENPRSF)”, for which the “DMS-derived PSSM value (averaged), position F9” value (prey ATXN2, TLNPNAKEFNPRSF(averaged) over the two overlapping peptides, F = wild type) was 0.02703. With “TLNPNAKEFNPRSF(averaged) A6Q (TLNPNQKEFNPRSF)”, under “prey ATXN2, TLNPNAKEFNPRSF(averaged) over the two overlapping peptides, A = wild type”, the “DMS-derived PSSM value (averaged), position A6” value is 0.

In the case of KSTLNPNAKEFNPRSF S2H (KHTLNPNAKEFNPRSF), the “DMS-derived PSSM value, position S2” value (prey ATXN2, peptide KSTLNPNAKEFNPRSF, S = wild type) came to 0.0308.

Take “TLNPNAKEFNPRSF(averaged) N5I (TLNPIAKEFNPRSF)”: under setting [8], the “DMS-derived PSSM value (averaged), position N5” value turned out to be 0.2839.

Regarding “TLNPNAKEFNPRSF(averaged) E8F (TLNPNAKFFNPRSF)”, the “DMS-derived PSSM value (averaged), position E8” value (prey ATXN2, TLNPNAKEFNPRSF(averaged) over the two overlapping peptides, E = wild type) came out at 0. Consider KSTLNPNAKEFNPRSF N7T (KSTLNPTAKEFNPRSF), for which, under setting [1], the “DMS-derived PSSM value, position N7” value was found to be 0.001519.

As to “TLNPNAKEFNPRSFSQ N10V (TLNPNAKEFVPRSFSQ)”, the “DMS-derived PSSM value, position N10” value under setting [16] worked out at 0.0007642. Regarding TLNPNAKEFNPRSFSQ A6Q (TLNPNQKEFNPRSFSQ), the “DMS-derived PSSM value, position A6” value under setting [13] was 0. Regarding “TLNPNAKEFNPRSF(averaged) P11R (TLNPNAKEFNRRSF)”, under setting [10], the “DMS-derived PSSM value (averaged), position P11” value stood at 0.003178. As to “KSTLNPNAKEFNPRSF R14I (KSTLNPNAKEFNPISF)”, the “DMS-derived PSSM value, position R14” value (prey ATXN2, peptide KSTLNPNAKEFNPRSF, R = wild type) is reported as 0.04837. As for “TLNPNAKEFNPRSF(averaged) N5G (TLNPGAKEFNPRSF)”, the “DMS-derived PSSM value (averaged), position N5” value under setting [8] worked out at 0.006922. Regarding KSTLNPNAKEFNPRSF L4G (KSTGNPNAKEFNPRSF), the “DMS-derived PSSM value, position L4” value under setting [18] worked out at 0. As to “KSTLNPNAKEFNPRSF F11H (KSTLNPNAKEHNPRSF)”, under setting [17], the “DMS-derived PSSM value, position F11” value is reported as 0.

Regarding TLNPNAKEFNPRSFSQ E8P (TLNPNAKPFNPRSFSQ), the “DMS-derived PSSM value, position E8” value under setting [14] came to 0.2652.
